Measured values published in patent US6274715A, “Tricyclic erythromycin derivatives” (priority 1997, dated 2001).
Converted amounts (≈) assume the structure as drawn.

Experiments:
Format in all cases: cell-based
[1] = tested on: MYCOBACTERIUM SMEGMATIS ATCC 114; assay: In vitro antibacterial activity, MIC, BHI agar dilution; settings: M. smegmatis ATCC 114, unit assumed
[2] = tested on: ENTEROBACTER AEROGENES ATCC 13048; assay: as above; settings: E. aerogenes ATCC 13048, unit assumed
ESCHERICHIA COLI SS = assay: as above; settings: E. coli SS, unit assumed
[3] = tested on: PSEUDOMONAS AERUGINOSA K799/61; assay: as above; settings: P. aeruginosa K799/61, unit assumed
[4] = tested on: ACINETOBACTER CALCOACETICUS CMX 669; assay: as above; settings: A. calcoaceticus CMX 669, unit assumed
[5] = tested on: STAPHYLOCOCCUS AUREUS CMX 553; assay: as above; settings: S. aureus CMX 553, unit assumed
[6] = tested on: STAPHYLOCOCCUS AUREUS ATCC 6538P; assay: as above; settings: S. aureus ATCC 6538P, 35-37° C., 20 to 24 hours, unit assumed
[7] = tested on: STAPHYLOCOCCUS AUREUS A-5278; assay: as above; settings: S. aureus A-5278, unit assumed
PSEUDOMONAS CEPACIA 296I = assay: as above; settings: P. cepacia 296I, unit assumed
ESCHERICHIA COLI DC-2 = assay: as above; settings: E. coli DC-2, unit assumed
[8] = tested on: PROVIDENCIA STUARTII CMX 640; settings: P. stuartii CMX 640; BHI agar; unit assumed
[9] = tested on: PSEUDOMONAS AERUGINOSA 5007; assay: In vitro antibacterial activity, MIC, BHI agar dilution; settings: P. aeruginosa 5007, unit assumed
[10] = tested on: STAPHYLOCOCCUS AUREUS 1775; assay: as above; settings: S. aureus 1775, unit assumed
ESCHERICHIA COLI JUHL = settings: E. coli JUHL; BHI agar; unit assumed
ESCHERICHIA COLI H560 = assay: In vitro antibacterial activity, MIC, BHI agar dilution; settings: E. coli H560, unit assumed
[11] = tested on: STAPHYLOCOCCUS AUREUS CMX 642A; assay: as above; settings: S. aureus CMX 642A, unit assumed
[12] = tested on: STAPHYLOCOCCUS AUREUS A5177; assay: as above; settings: S. aureus A5177, unit assumed
[13] = tested on: KLEBSIELLA PNEUMONIAE ATCC 8045; assay: as above; settings: K. pneumoniae ATCC 8045, unit assumed
[14] = tested on: STREPTOCOCCUS PYOGENES 930; assay: as above; settings: S. pyogenes 930, unit assumed
[15] = tested on: PSEUDOMONAS AERUGINOSA DPHD-5263; assay: as above; settings: P. aeruginosa DPHD-5263, unit assumed
[16] = tested on: STAPHYLOCOCCUS AUREUS NCTC10649M; assay: as above; settings: S. aureus NCTC10649M, unit assumed
CANDIDA ALBICANS CCH 442 = assay: as above; settings: C. albicans CCH 442, unit assumed
[17] = tested on: STREPTOCOCCUS PYOGENES EES61; assay: as above; settings: S. pyogenes EES61, unit assumed
[18] = tested on: PSEUDOMONAS AERUGINOSA DPHD-2862; assay: as above; settings: P. aeruginosa DPHD-2862, unit assumed
[19] = tested on: PSEUDOMONAS AERUGINOSA BMH10; assay: as above; settings: P. aeruginosa BMH10, unit assumed
[20] = tested on: STREPTOCOCCUS PYOGENES PIU 2548; assay: as above; settings: S. pyogenes PIU 2548, unit assumed
[21] = tested on: PSEUDOMONAS AERUGINOSA K799/WT; assay: as above; settings: P. aeruginosa K799/WT, unit assumed
M[…] ATCC 9341 = assay: as above; settings: M. luteus ATCC 9341, unit assumed
Summary of the method: (§1)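 MIC was read visually as the lowest drug concentration showing no growth, a slight haze or sparsely isolated colonies relative to a compound-free BHI plate. Plates held serial aqueous dilutions in BHI agar, were spot-inoculated with 1:100 (or 1:10) culture dilutions and incubated 20 to 24 hours at 35-37° C.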

STR[…] 508 = assay: as above; settings: S. agalactiae CMX 508, unit assumed
Summary of the method: as §1

EN[…] ATCC 8043 = assay: as above; settings: E. faecium ATCC 8043, unit assumed
Summary of the method: as §1

M[…] ATCC 4698 = assay: as above; settings: M. luteus ATCC 4698, unit assumed
Summary of the method: as §1

[22] = tested on: STAPHYLOCOCCUS EPIDERMIDIS 3519; settings: S. epidermidis 3519; BHI agar; unit assumed
ESCHERICHIA COLI KNK 437 = settings: E. coli KNK 437; BHI agar; unit assumed
[23] = tested on: STREPTOCOCCUS BOVIS A-5169; assay: In vitro antibacterial activity, MIC, BHI agar dilution; settings: S. bovis A-5169, unit assumed

Structure (SMILES)	MIC [1] [µg/mL]	MIC [2] [µg/mL]	MIC (ESCHERICHIA COLI SS) [µg/mL]	MIC [3] [µg/mL]	MIC [4] [µg/mL]	MIC [5] [µg/mL]	MIC [6] [µg/mL]	MIC [7] [µg/mL]	MIC (PSEUDOMONAS CEPACIA 296I) [µg/mL]	MIC (ESCHERICHIA COLI DC-2) [µg/mL]	MIC [8] [µg/mL]	MIC [9] [µg/mL]	MIC [10] [µg/mL]	MIC (ESCHERICHIA COLI JUHL) [µg/mL]	MIC (ESCHERICHIA COLI H560) [µg/mL]	MIC [11] [µg/mL]	MIC [12] [µg/mL]	MIC [13] [µg/mL]	MIC [14] [µg/mL]	MIC [15] [µg/mL]	further results
CC[C@H]1OC(=O)[C@H](C)C(=O)[C@H](C)[C@@H](O[C@@H]2O[C@H](C)C[C@H](N(C)C)[C@H]2O)[C@](C)(OC)C[C@@H](C)C2=N[C@@H]3CCCC[C@@H]3N3C(=O)O[C@@]1(C)[C@H]3[C@H]2C [Example 13]	0.39 (≈ 0.564 µM)	100 (≈ 145 µM)	0.39 (≈ 0.564 µM)	3.1 (≈ 4.48 µM)	> 100	0.78 (≈ 1.13 µM)	0.78 (≈ 1.13 µM)	> 100	> 100	100 (≈ 145 µM)	> 100	> 100	> 100	50 (≈ 72.3 µM)	50 (≈ 72.3 µM)	0.78 (≈ 1.13 µM)	0.78 (≈ 1.13 µM)	100 (≈ 145 µM)	> 100	> 100	MIC [16]: 0.78 µg/mL (≈ 1.13 µM); MIC (CANDIDA ALBICANS CCH 442): 3.1 µg/mL (≈ 4.48 µM); MIC [17]: 0.02 µg/mL (≈ 0.0289 µM); MIC [18]: > 100 µg/mL; MIC [19]: > 100 µg/mL; MIC [20]: 0.2 µg/mL (≈ 0.289 µM); MIC [21]: > 100 µg/mL; MIC (M[…] ATCC 9341): 0.2 µg/mL (≈ 0.289 µM); MIC (STR[…] 508): 0.02 µg/mL (≈ 0.0289 µM); MIC (EN[…] ATCC 8043): 0.1 µg/mL (≈ 0.145 µM); MIC (M[…] ATCC 4698): 0.78 µg/mL (≈ 1.13 µM); MIC [22]: 0.78 µg/mL (≈ 1.13 µM); MIC (ESCHERICHIA COLI KNK 437): 100 µg/mL (≈ 145 µM)
CC[C@H]1OC(=O)[C@H](C)C(=O)[C@H](C)[C@@H](O[C@@H]2O[C@H](C)C[C@H](N(C)C)[C@H]2O)[C@](C)(OC)C[C@@H](C)C2=N[C@@H]3CCC[C@@H]3N3C(=O)O[C@@]1(C)[C@H]3[C@H]2C [Example 17]	12.5 (≈ 18.4 µM)	> 100	0.78 (≈ 1.15 µM)	12.5 (≈ 18.4 µM)	100 (≈ 148 µM)	0.78 (≈ 1.15 µM)	0.78 (≈ 1.15 µM)	> 100	> 100	> 100	> 100	> 100	> 100	> 100	100 (≈ 148 µM)	0.78 (≈ 1.15 µM)	0.78 (≈ 1.15 µM)	> 100	> 100	> 100	MIC [23]: 0.02 µg/mL (≈ 0.0295 µM); MIC [16]: 0.78 µg/mL (≈ 1.15 µM); MIC (CANDIDA ALBICANS CCH 442): > 100 µg/mL; MIC [17]: 0.05 µg/mL (≈ 0.0738 µM); MIC [18]: > 100 µg/mL; MIC [19]: > 100 µg/mL; MIC [20]: 0.39 µg/mL (≈ 0.575 µM); MIC [21]: > 100 µg/mL; MIC (M[…] ATCC 9341): 0.1 µg/mL (≈ 0.148 µM); MIC (STR[…] 508): 0.05 µg/mL (≈ 0.0738 µM); MIC (EN[…] ATCC 8043): 0.2 µg/mL (≈ 0.295 µM); MIC (M[…] ATCC 4698): 0.78 µg/mL (≈ 1.15 µM); MIC [22]: 0.78 µg/mL (≈ 1.15 µM); MIC (ESCHERICHIA COLI KNK 437): > 100 µg/mL
